Source: PubChem BioAssay AID1963441 (Molecular Pharmacology Branch, DTP, NCI, 2024)
pIC50: −log10 of the molar value.

System: NCI-H1876 complex spheroid growth, % test/control
Experiment: Anticancer human tumor NCI-H1876 cell line growth inhibition [Asc];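 further: compound exposure lasted 7 days starting three days after seeding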;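 on viability, T/C: 100% = DMSO vehicle control wells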
Settings: for viability, T/C: stronger effect = lower value
In short: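 Complex solid-tumor spheroids incorporating human endothelial and mesenchymal stem cells received single agents or combinations over half-log dilution ranges anchored to clinical Cmax.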

[1] = curve of first compound, second compound 0.00949 µM
[2] = curve of first compound, second compound 0.03 µM
[3] = curve of first compound, second compound 0.0949 µM
[4] = curve of first compound, second compound 0.3 µM
[5] = curve of first compound, second compound 0.949 µM
[6] = curve of first compound, second compound 3 µM
[7] = second compound 0.00949 µM, first compound 0.0316 µM
[8] = second compound 0.00949 µM, first compound 0.1 µM
[9] = second compound 0.00949 µM, first compound 0.316 µM
[10] = second compound 0.00949 µM, first compound 1 µM
[11] = second compound 0.03 µM, first compound 0.0316 µM
[12] = second compound 0.03 µM, first compound 0.1 µM
[13] = second compound 0.03 µM, first compound 0.316 µM
[14] = second compound 0.03 µM, first compound 1 µM
[15] = second compound 0.0949 µM, first compound 0.0316 µM
[16] = second compound 0.0949 µM, first compound 0.1 µM
[17] = second compound 0.0949 µM, first compound 0.316 µM
[18] = second compound 0.0949 µM, first compound 1 µM
[19] = second compound 0.3 µM, first compound 0.0316 µM
[20] = second compound 0.3 µM, first compound 0.1 µM
[21] = second compound 0.3 µM, first compound 0.316 µM
[22] = second compound 0.3 µM, first compound 1 µM
[23] = second compound 0.949 µM, first compound 0.0316 µM
[24] = second compound 0.949 µM, first compound 0.1 µM
[25] = second compound 0.949 µM, first compound 0.316 µM
[26] = second compound 0.949 µM, first compound 1 µM
[27] = second compound 3 µM, first compound 0.0316 µM
[28] = second compound 3 µM, first compound 0.1 µM
[29] = second compound 3 µM, first compound 0.316 µM
[30] = second compound 3 µM, first compound 1 µM

SMILES: O=C(c1ccc(F)c(F)c1Nc1ccc(I)cc1F)N1CC(O)([C@@H]2CCCCN2)C1 + CCN1C(C(=O)NC23CCC(C(=O)O)(CC2)CC3)C(c2cccc(Cl)c2F)C2(C(=O)Nc3cc(Cl)ccc32)C12CCCCC2
- pIC50 [1]: < 6.00
- pIC50 [2]: < 6.00
- pIC50 [3]: < 6.00
- pIC50 [4]: < 6.00
- pIC50 [5]: < 6.00
- pIC50 [6]: < 6.00
- viability, T/C (second compound 0.00949 µM, first compound 0.00316 µM): 102%
- viability, T/C (second compound 0.00949 µM, first compound 0.01 µM): 90.7%
- viability, T/C [7]: 104%
- viability, T/C [8]: 95.7%
- viability, T/C [9]: 93.4%
- viability, T/C [10]: 87.7%
- viability, T/C (second compound 0.03 µM, first compound 0.00316 µM): 100%
- viability, T/C (second compound 0.03 µM, first compound 0.01 µM): 98.5%
- viability, T/C [11]: 95.5%
- viability, T/C [12]: 95.1%
- viability, T/C [13]: 89.5%
- viability, T/C [14]: 82.3%
- viability, T/C (second compound 0.0949 µM, first compound 0.00316 µM): 104%
- viability, T/C (second compound 0.0949 µM, first compound 0.01 µM): 97.5%
- viability, T/C [15]: 88%
- viability, T/C [16]: 102%
- viability, T/C [17]: 85.8%
- viability, T/C [18]: 79.2%
- viability, T/C (second compound 0.3 µM, first compound 0.00316 µM): 99.9%
- viability, T/C (second compound 0.3 µM, first compound 0.01 µM): 110%
- viability, T/C [19]: 109%
- viability, T/C [20]: 101%
- viability, T/C [21]: 103%
- viability, T/C [22]: 83.7%
- viability, T/C (second compound 0.949 µM, first compound 0.00316 µM): 110%
- viability, T/C (second compound 0.949 µM, first compound 0.01 µM): 114%
- viability, T/C [23]: 112%
- viability, T/C [24]: 109%
- viability, T/C [25]: 108%
- viability, T/C [26]: 77.4%
- viability, T/C (second compound 3 µM, first compound 0.00316 µM): 103%
- viability, T/C (second compound 3 µM, first compound 0.01 µM): 98.3%
- viability, T/C [27]: 101%
- viability, T/C [28]: 99.1%
- viability, T/C [29]: 91.3%
- viability, T/C [30]: 77.4%

SMILES: Cc1nc(N2CCC3(CC2)COC(C)C3N)c(CO)nc1Sc1ccnc(N)c1Cl (stereo not drawn) + Cc1c(S(C)(=O)=O)c(-c2cc(F)cc(N3CCN(c4ccc(NS(=O)(=O)c5ccc(NC(CCN6CCC(C(=O)OCCCP(=O)(O)O)CC6)CSc6ccccc6)c(S(=O)(=O)C(F)(F)F)c5)cc4)CC3)c2)c(-c2ccc(Cl)cc2)n1C(C)C
- pIC50 (curve of first compound, second compound 0.0316 µM): < 5.52
- pIC50 (curve of first compound, second compound 0.1 µM): < 5.52
- pIC50 (curve of first compound, second compound 0.316 µM): < 5.52
- pIC50 (curve of first compound, second compound 1 µM): < 5.52
- pIC50 (curve of first compound, second compound 3.16 µM): < 5.52
- pIC50 (curve of first compound, second compound 10 µM): < 5.52
- viability, T/C (second compound 0.0316 µM, first compound 0.00949 µM): 106%
- viability, T/C (second compound 0.0316 µM, first compound 0.03 µM): 86.8%
- viability, T/C (second compound 0.0316 µM, first compound 0.0949 µM): 90.2%
- viability, T/C (second compound 0.0316 µM, first compound 0.3 µM): 78.7%
- viability, T/C (second compound 0.0316 µM, first compound 0.949 µM): 83.2%
- viability, T/C (second compound 0.0316 µM, first compound 3 µM): 79.4%
- viability, T/C (second compound 0.1 µM, first compound 0.00949 µM): 95.7%
- viability, T/C (second compound 0.1 µM, first compound 0.03 µM): 101%
- viability, T/C (second compound 0.1 µM, first compound 0.0949 µM): 93.7%
- viability, T/C (second compound 0.1 µM, first compound 0.3 µM): 88%
- viability, T/C (second compound 0.1 µM, first compound 0.949 µM): 84.2%
- viability, T/C (second compound 0.1 µM, first compound 3 µM): 82.6%
- viability, T/C (second compound 0.316 µM, first compound 0.00949 µM): 81.8%
- viability, T/C (second compound 0.316 µM, first compound 0.03 µM): 89.7%
- viability, T/C (second compound 0.316 µM, first compound 0.0949 µM): 92.2%
- viability, T/C (second compound 0.316 µM, first compound 0.3 µM): 75.7%
- viability, T/C (second compound 0.316 µM, first compound 0.949 µM): 88.4%
- viability, T/C (second compound 0.316 µM, first compound 3 µM): 81.6%
- viability, T/C (second compound 1 µM, first compound 0.00949 µM): 94.2%
- viability, T/C (second compound 1 µM, first compound 0.03 µM): 92%
- viability, T/C (second compound 1 µM, first compound 0.0949 µM): 81.5%
- viability, T/C (second compound 1 µM, first compound 0.3 µM): 83.8%
- viability, T/C (second compound 1 µM, first compound 0.949 µM): 93.7%
- viability, T/C (second compound 1 µM, first compound 3 µM): 74.2%
- viability, T/C (second compound 3.16 µM, first compound 0.00949 µM): 90.1%
- viability, T/C (second compound 3.16 µM, first compound 0.03 µM): 88.7%
- viability, T/C (second compound 3.16 µM, first compound 0.0949 µM): 83.7%
- viability, T/C (second compound 3.16 µM, first compound 0.3 µM): 84.9%
- viability, T/C (second compound 3.16 µM, first compound 0.949 µM): 83.3%
- viability, T/C (second compound 3.16 µM, first compound 3 µM): 80.7%
- viability, T/C (second compound 10 µM, first compound 0.00949 µM): 103%
- viability, T/C (second compound 10 µM, first compound 0.03 µM): 88.8%
- viability, T/C (second compound 10 µM, first compound 0.0949 µM): 85.3%
- viability, T/C (second compound 10 µM, first compound 0.3 µM): 92.4%
- viability, T/C (second compound 10 µM, first compound 0.949 µM): 96.7%
- viability, T/C (second compound 10 µM, first compound 3 µM): 70.3%

SMILES: C=C(F)C(=O)N1CCN(c2nc(OCC3CCCN3C)nc3c2CCN(c2cccc4cccc(Cl)c24)C3)CC1CC#N (stereo not drawn) + CCN1C(C(=O)NC23CCC(C(=O)O)(CC2)CC3)C(c2cccc(Cl)c2F)C2(C(=O)Nc3cc(Cl)ccc32)C12CCCCC2
- pIC50 [1]: 5.18
- pIC50 [2]: 5.16
- pIC50 [3]: 5.16
- pIC50 [4]: 5.17
- pIC50 [5]: 5.19
- pIC50 [6]: 5.25
- viability, T/C [7]: 93.6%
- viability, T/C [8]: 102%
- viability, T/C [9]: 102%
- viability, T/C [10]: 107%
- viability, T/C (second compound 0.00949 µM, first compound 3.16 µM): 107%
- viability, T/C (second compound 0.00949 µM, first compound 10 µM): 21.5%
- viability, T/C [11]: 104%
- viability, T/C [12]: 108%
- viability, T/C [13]: 109%
- viability, T/C [14]: 110%
- viability, T/C (second compound 0.03 µM, first compound 3.16 µM): 106%
- viability, T/C (second compound 0.03 µM, first compound 10 µM): 24%
- viability, T/C [15]: 107%
- viability, T/C [16]: 99.3%
- viability, T/C [17]: 101%
- viability, T/C [18]: 98.5%
- viability, T/C (second compound 0.0949 µM, first compound 3.16 µM): 101%
- viability, T/C (second compound 0.0949 µM, first compound 10 µM): 26%
- viability, T/C [19]: 104%
- viability, T/C [20]: 92.1%
- viability, T/C [21]: 99.3%
- viability, T/C [22]: 110%
- viability, T/C (second compound 0.3 µM, first compound 3.16 µM): 111%
- viability, T/C (second compound 0.3 µM, first compound 10 µM): 22.9%
- viability, T/C [23]: 111%
- viability, T/C [24]: 107%
- viability, T/C [25]: 108%
- viability, T/C [26]: 116%
- viability, T/C (second compound 0.949 µM, first compound 3.16 µM): 109%
- viability, T/C (second compound 0.949 µM, first compound 10 µM): 12.7%
- viability, T/C [27]: 109%
- viability, T/C [28]: 109%
- viability, T/C [29]: 110%
- viability, T/C [30]: 112%
- viability, T/C (second compound 3 µM, first compound 3.16 µM): 93.8%
- viability, T/C (second compound 3 µM, first compound 10 µM): 7.68%

SMILES: Cc1c(S(C)(=O)=O)c(-c2cc(F)cc(N3CCN(c4ccc(NS(=O)(=O)c5ccc(NC(CCN6CCC(C(=O)OCCCP(=O)(O)O)CC6)CSc6ccccc6)c(S(=O)(=O)C(F)(F)F)c5)cc4)CC3)c2)c(-c2ccc(Cl)cc2)n1C(C)C (stereo not drawn)
- viability, T/C (compound 0.0316 µM): 109% [middle of 7 runs]
- viability, T/C (compound 0.1 µM): 101% [middle of 7 runs]
- viability, T/C (compound 0.316 µM): 96.3% [middle of 7 runs]
- viability, T/C (compound 1 µM): 90.5% [middle of 7 runs]
- viability, T/C (compound 3.16 µM): 95.5% [middle of 7 runs]
- viability, T/C (compound 10 µM): 102% [middle of 7 runs]
- pIC50 (compound alone, run of 11/07/2022): < 5.00
